Measured values as given in patent publication US6355799B1, “Substituted benzene compounds, process for their preparation, and herbicidal and defoliant compositions containing them” (ISK Americas Incorporated, priority 1997, dated 2002).

Assays:
Assay type in all cases: in vivo
[1] = tested on: field corn (Zea mays L., var. Dekalb 535, CORN); test: Pre-emerge test, crop safety; conditions: rating scale 0-100, 14 days after application
Summary of the method: (§1)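 Plants grown in 10 cm pots of sandy loam mix received acetone-dissolved compounds through a moving flat-fan nozzle. Doses ranged from 15 to 1000 g ai/ha. Pre-emerge pots were seeded one day earlier, post-emerge pots 8–21 days earlier. Fourteen days on, each pot was graded 0–100 for damage.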

[2] = tested on: upland rice (Oryza sp., var. Tebonnet, RICE); test: Pre-emerge test, crop safety; conditions: rating scale 0-100, 14 days after application
Summary of the method: as §1

[3] = tested on: sicklepod (Cassia obtusifolia, CASOB); test: Post-emerge test, greenhouse herbicide activity screening; conditions: rating scale 0-100 (0 no damage, 100 complete death), 14 days after application
Summary of the method: (§2)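 Each test used a mechanized track sprayer delivering 187 l/ha of acetone solution at 15–1000 g ai/ha. Post-emerge foliage at 2–3 leaves was treated with added 0.25% v/v non-ionic surfactant and bottom-watered only. Injury was assessed on day 14, where 100 means total kill.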

[4] = tested on: johnsongrass (Sorghum halepense, SORHA); test: as above; conditions: rating scale 0-100 (0 no damage, 100 complete death), 14 days after application
Summary of the method: as §2

[5] = tested on: lambsquarters (Chenopodium album, CHEAL); test: as above; conditions: rating scale 0-100 (0 no damage, 100 complete death), 14 days after application
Summary of the method: as §2

[6] = tested on: barnyardgrass (Echinochloa crus-galli, ECHCG); test: as above; conditions: rating scale 0-100 (0 no damage, 100 complete death), 14 days after application
Summary of the method: as §2

[7] = tested on: green foxtail (Setaria viridis, SETVI); test: as above; conditions: rating scale 0-100 (0 no damage, 100 complete death), 14 days after application
Summary of the method: as §2

[8] = tested on: common ragweed (Ambrosia artemisizfolia L., AMBEL); test: as above; conditions: rating scale 0-100 (0 no damage, 100 complete death), 14 days after application
Summary of the method: as §2

[9] = tested on: redroot pigweed (Amaranthus retroflexus, AMARE); test: as above; conditions: rating scale 0-100 (0 no damage, 100 complete death), 14 days after application
Summary of the method: as §2

[10] = tested on: ivyleaf morningglory (Ipomoea hederacea, IPOHE); test: as above; conditions: rating scale 0-100 (0 no damage, 100 complete death), 14 days after application
Summary of the method: as §2

[11] = tested on: large crabgrass (Digitaria sanguinalis, DIGSA); test: as above; conditions: rating scale 0-100 (0 no damage, 100 complete death), 14 days after application
Summary of the method: as §2

[12] = tested on: velvetleaf (Abutilon theophrasti, ABUTH); test: as above; conditions: rating scale 0-100 (0 no damage, 100 complete death), 14 days after application
Summary of the method: as §2

[13] = tested on: field corn (Zea mays L., var. Dekalb 535, CORN); test: Post-emerge test, crop safety; conditions: rating scale 0-100 (0 no damage, 100 complete death), 14 days after application
Summary of the method: (§3)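 Fourteen days after spraying, crop and weed injury was graded visually from 0, no effect, to 100, every plant dead. Test substances were dissolved in acetone and applied at 15–1000 g ai/ha with a flat-fan nozzle. Application was either pre-emergence, one day after sowing, or post-emergence at the 2–3 leaf stage.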

[14] = tested on: upland rice (Oryza sp., var. Tebonnet, RICE); test: Post-emerge test, crop safety; conditions: rating scale 0-100 (0 no damage, 100 complete death), 14 days after application
Summary of the method: as §3

[15] = tested on: redroot pigweed (Amaranthus retroflexus, AMARE); test: Pre-emerge test, greenhouse herbicide activity screening; conditions: rating scale 0-100, 14 days after application
Summary of the method: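 Visual ratings on a 0-100 scale (0 no damage, 100 all plants dead) were taken at 14 days after treatment. Rates of 15-1000 g ai/ha in acetone, 187 l/ha, were sprayed onto soil one day after planting (pre-emerge) or onto 2-3 leaf plants with 0.25% v/v surfactant (post-emerge).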

[16] = tested on: sicklepod (Cassia obtusifolia, CASOB); test: as above; conditions: rating scale 0-100, 14 days after application
Summary of the method: as §3

[17] = tested on: johnsongrass (Sorghum halepense, SORHA); test: as above; conditions: rating scale 0-100, 14 days after application
Summary of the method: as §3

[18] = tested on: lambsquarters (Chenopodium album, CHEAL); test: as above; conditions: rating scale 0-100, 14 days after application
Summary of the method: as §3

[19] = tested on: barnyardgrass (Echinochloa crus-galli, ECHCG); test: as above; conditions: rating scale 0-100, 14 days after application
Summary of the method: as §3

[20] = tested on: green foxtail (Setaria viridis, SETVI); test: as above; conditions: rating scale 0-100, 14 days after application
Summary of the method: as §3

[21] = tested on: common ragweed (Ambrosia artemisizfolia L., AMBEL); test: as above; conditions: rating scale 0-100, 14 days after application
Summary of the method: as §3

[22] = tested on: ivyleaf morningglory (Ipomoea hederacea, IPOHE); test: as above; conditions: rating scale 0-100, 14 days after application
Summary of the method: as §3

[23] = tested on: large crabgrass (Digitaria sanguinalis, DIGSA); test: as above; conditions: rating scale 0-100, 14 days after application
Summary of the method: as §3

[24] = tested on: velvetleaf (Abutilon theophrasti, ABUTH); test: as above; conditions: rating scale 0-100, 14 days after application
Summary of the method: as §3

COc1c(Cl)cc(F)c(-n2c(=O)cc(C(F)(F)F)n(C)c2=O)c1CC(Cl)C(=O)OC(C)(C)C (stereo not drawn) [14-18]
Pre-emerge phytotoxicity rating, crop damage CORN ([1]; 63 g ai/ha): 0
Pre-emerge phytotoxicity rating, crop damage CORN ([1]; 250 g ai/ha): 0
Pre-emerge phytotoxicity rating, crop damage RICE ([2]; 63 g ai/ha): 0
Pre-emerge phytotoxicity rating, crop damage RICE ([2]; 250 g ai/ha): 10
Post-emerge Herbicidal Activity, phytotoxicity rating CASOB ([3]; Rate 63 g ai/ha): 20
Post-emerge Herbicidal Activity, phytotoxicity rating CASOB ([3]; Rate 250 g ai/ha): 60
Post-emerge Herbicidal Activity, phytotoxicity rating SORHA ([4]; Rate 63 g ai/ha): 10
Post-emerge Herbicidal Activity, phytotoxicity rating SORHA ([4]; Rate 250 g ai/ha): 30
Post-emerge Herbicidal Activity, phytotoxicity rating CHEAL ([5]; Rate 63 g ai/ha): 99
Post-emerge Herbicidal Activity, phytotoxicity rating CHEAL ([5]; Rate 250 g ai/ha): 100
Post-emerge Herbicidal Activity, phytotoxicity rating ECHCG ([6]; Rate 63 g ai/ha): 99
Post-emerge Herbicidal Activity, phytotoxicity rating ECHCG ([6]; Rate 250 g ai/ha): 100
Post-emerge Herbicidal Activity, phytotoxicity rating SETVI ([7]; Rate 63 g ai/ha): 10
Post-emerge Herbicidal Activity, phytotoxicity rating SETVI ([7]; Rate 250 g ai/ha): 20
Post-emerge Herbicidal Activity, phytotoxicity rating AMBEL ([8]; Rate 63 g ai/ha): 0
Post-emerge Herbicidal Activity, phytotoxicity rating AMBEL ([8]; Rate 250 g ai/ha): 10
Post-emerge Herbicidal Activity, phytotoxicity rating AMARE ([9]; Rate 63 g ai/ha): 100
Post-emerge Herbicidal Activity, phytotoxicity rating AMARE ([9]; Rate 250 g ai/ha): 100
Post-emerge Herbicidal Activity, phytotoxicity rating IPOHE ([10]; Rate 63 g ai/ha): 30
Post-emerge Herbicidal Activity, phytotoxicity rating IPOHE ([10]; Rate 250 g ai/ha): 60
Post-emerge Herbicidal Activity, phytotoxicity rating DIGSA ([11]; Rate 63 g ai/ha): 20
Post-emerge Herbicidal Activity, phytotoxicity rating DIGSA ([11]; Rate 250 g ai/ha): 60
Post-emerge Herbicidal Activity, phytotoxicity rating ABUTH ([12]; Rate 63 g ai/ha): 30
Post-emerge Herbicidal Activity, phytotoxicity rating ABUTH ([12]; Rate 250 g ai/ha): 60
Post-emerge phytotoxicity rating CORN (crop damage) ([13]; Rate 63 g ai/ha): 20
Post-emerge phytotoxicity rating CORN (crop damage) ([13]; Rate 250 g ai/ha): 50
Post-emerge phytotoxicity rating RICE (crop damage) ([14]; Rate 63 g ai/ha): 10
Post-emerge phytotoxicity rating RICE (crop damage) ([14]; Rate 250 g ai/ha): 25
Pre-emerge herbicidal activity, phytotoxicity rating AMARE ([15]; 63 g ai/ha): 100
Pre-emerge herbicidal activity, phytotoxicity rating AMARE ([15]; 250 g ai/ha): 100
Pre-emerge herbicidal activity, phytotoxicity rating CASOB ([16]; 63 g ai/ha): 0
Pre-emerge herbicidal activity, phytotoxicity rating CASOB ([16]; 250 g ai/ha): 20
Pre-emerge herbicidal activity, phytotoxicity rating SORHA ([17]; 63 g ai/ha): 0
Pre-emerge herbicidal activity, phytotoxicity rating SORHA ([17]; 250 g ai/ha): 10
Pre-emerge herbicidal activity, phytotoxicity rating CHEAL ([18]; 63 g ai/ha): 100
Pre-emerge herbicidal activity, phytotoxicity rating CHEAL ([18]; 250 g ai/ha): 100
Pre-emerge herbicidal activity, phytotoxicity rating ECHCG ([19]; 63 g ai/ha): 0
Pre-emerge herbicidal activity, phytotoxicity rating ECHCG ([19]; 250 g ai/ha): 20
Pre-emerge herbicidal activity, phytotoxicity rating SETVI ([20]; 63 g ai/ha): 0
Pre-emerge herbicidal activity, phytotoxicity rating SETVI ([20]; 250 g ai/ha): 20
Pre-emerge herbicidal activity, phytotoxicity rating AMBEL ([21]; 63 g ai/ha): 0
Pre-emerge herbicidal activity, phytotoxicity rating AMBEL ([21]; 250 g ai/ha): 70
Pre-emerge herbicidal activity, phytotoxicity rating IPOHE ([22]; 63 g ai/ha): 0
Pre-emerge herbicidal activity, phytotoxicity rating IPOHE ([22]; 250 g ai/ha): 20
Pre-emerge herbicidal activity, phytotoxicity rating DIGSA ([23]; 63 g ai/ha): 0
Pre-emerge herbicidal activity, phytotoxicity rating DIGSA ([23]; 250 g ai/ha): 90
Pre-emerge herbicidal activity, phytotoxicity rating ABUTH ([24]; 63 g ai/ha): 40
Pre-emerge herbicidal activity, phytotoxicity rating ABUTH ([24]; 250 g ai/ha): 70
